This is an account of results in patent EP4389739A1, “MOLECULE HAVING PESTICIDAL UTILITY AND PROCESSES RELATED THERETO” (Corteva Agriscience LLC, priority 2022, dated 2024).

Structures are written as SMILES.

Common to all, as to assay type: in vivo
Data set [1] deals with root knot nematode (RKN), Meloidogyne incognita. As to the kind of experiment: Root Knot Nematode (RKN) test on cucumber seedlings in greenhouse, Galling Index converted to % control, EC by probit analysis. As to conditions: based on % control from Galling Index, cucumber, 4,000 J2s, 14 days in Greenhouse, about 27 °C. The procedure:
The following Root Knot Nematode (RKN) test was conducted to compare the activities of S1, R1, and B1.
We conducted an experiment to evaluate comparative bioactivity of S1, R1, and B1 against the root knot nematode (RKN), Meloidogyne incognita. Each of S1, R1, and B1 were tested at […]: 125, 62.5, 31.25, 15.6, 7.8, 3.9, and 2 ppm. Cucumber seeds (Cucumis sativus) were planted in a sandy loam soil in 3-inch pots. After 6 days of germination, the seedlings were treated with the test compounds dissolved in 5% acetone in water. The treated plants were inoculated with 4,000 second stage juveniles (J2s) of M. incognita. Each experimental unit was replicated three times. The inoculated plants were kept in a Greenhouse for 14 days (about 27 °C) before evaluating the amount of root damage (galls) called Galling Index (GI) based on a scale of 0 - 10; where 0 = no galls (100% control), and 10 = maximum galls (no control). The GI was converted to % control using the formula (10 - GI) x 10; where GI = Gall Index. Effective concentration (EC) values based on the % control of the nematode by S1, R1 and B1 were calculated by probit analysis.

Data set [2] concerns root lesion nematode (RLN), Pratylechus penetrans. Put plainly: Root Lesion Nematode (RLN) in-vitro mortality test. As to conditions: mortality after 48 hours, about 25 °C, 0.5% DMSO in water. The procedure: The following Root Lesion Nematode (RLN) test was conducted to compare the activities of S1, R1, and B1.
We carried out an in-vitro experiment to compare activity of S1, R1, and B1 with each other against the root lesion nematode (RLN), Pratylechus penetrans. Each of S1, R1, and B1 were tested at six rates: 62.5, 15.6, 4, 1, 0.25, and 0 ppm (UTC) with three replications of each treatment. Equal volume of nematode suspension was added to an equal volume of each of S1, R1, and B1 dissolved in 0.5% DMSO (dimethyl sulfoxide) in water in 25 mL vials. The treated nematode suspension was incubated at room temperature (about 25 °C) on a shaker (95 RPM). Aliquots of 1 mL of the nematode suspension was evaluated under a microscope for mortality after 48 hours. RLN were counted, and the number of dead and active nematodes was used to calculate % mortality from which lethal concentration (LC) values were generated.

The test system of data set [3] is soybean cyst nematode (SCN): Heterodera glycines second stage juveniles (J2). Put plainly: Soybean Cyst Nematode (SCN) in-vitro mortality test. As to conditions: mortality after 48 hours of incubation, about 25 °C, 0.5% DMSO in water; probit analysis. The procedure:
The following Soybean Cyst Nematode (SCN) test was conducted to compare the activities of S1, R1, and B1.
We carried out an in-vitro experiment to compare activity of S1, R1, and B1 with each other against the soybean cyst nematode (SCN): Heterodera glycines second stage juveniles (J2). Each of S1, R1, and B1 were tested at six rates: 62.5, 15.6, 4, 1, 0.25, and 0 ppm (untreated control, UTC) with three replications of each treatment. Equal volume of nematode suspension was added to an equal volume of compound dissolved in 0.5% DMSO (dimethyl sulfoxide) in water. The nematode plus compound was incubated at room temperature (about 25 °C) on a shaker at 95 revolutions per minutes (RPM). Aliquots of 0.5 milliliters (mL) of the nematode suspension were evaluated under a microscope for mortality after 48 hours of incubation. SCN J2s were counted, and the number of dead and active nematodes was used to calculate % SCN mortality which was used to generate lethal concentration (LC) values by probit analysis.

For data set [4], the system named is root knot nematode, Meloidogyne incognita. Put plainly: Root knot nematode comparative bioactivity test at a single rate, drench application on cucumber seedlings. As to conditions: 600 g ai/ha, 14 days after inoculation, (10 - GI) x 10, three replicates. The procedure:
We carried out an experiment to evaluate comparative bioactivity of S 1, C1, C2, C3, C4, and C5 against the root knot nematode, Meloidogyne incognita. Each compound was tested at 600 grams of active ingredient per hectare (g ai/ha) and was replicated three times. Cucumber seeds (Cucumis sativus) were planted in a sandy loam soil in 3-inch pots. After six (6) days of planting, the seedlings were treated with the test compounds dissolved in 5% acetone in water by drench application. The plants were inoculated with 4,000 second stage juveniles (J2s) of M. incognita. The inoculated plants were kept in a Greenhouse for 14 days (temperature 27 °C) before evaluating the amount of root damage (galls) called Galling Index (GI) based on a scale of 0 - 10; where 0 = no galls (100% nematode control), and 10 = maximum galls (no nematode control). The GI was converted to % nematode control using the formula ((10 - GI) x 10); where GI = Gall Index. The data were analyzed by Analysis of Variance using JMP (John's Macintosh Project) statistical software and the means were separated using Tukey's HSD (α = 0.05).

The test system of another data set is M. incognita. Put plainly: Residuality test in soil: treated soil aged four weeks, then cucumber seedlings transplanted and inoculated. As to conditions: 1250 g ai/ha applied to bare sandy loam soil, four weeks before transplanting and inoculation; 14 days; four replicates. The procedure: The molecules in Example Two were compared in a residuality test.
A residuality test was conducted to compare the residual control or persistence of S 1, R1, C1, C2, C3, C4, and C5 in soil. Each compound was applied to a bare sandy loam soil (without plant or nematode) in a 3-inch pot at 1250 g ai/ha. The treated soils were kept in a Greenhouse (temperature 27 °C) under regular irrigation for four weeks. At the end of the four weeks, six-day old cucumber (Cucumis sativus) seedlings were transplanted into the treated soil and inoculated with 4,000 second stage juveniles of M. incognita. Each treatment was replicated four times. The inoculated plants were kept in a Greenhouse for 14 days (temperature 27 °C) before evaluating the amount of root damage (galls) called Galling Index (GI) based on a scale of 0 - 10; where 0 = no galls (100% nematode control), and 10 = maximum galls (no nematode control). The GI were converted to % control using the formula ((10 - GI) x 10); where GI = Gall Index. The data were analyzed by Analysis of Variance using JMP (John's Macintosh Project) statistical software and the means were separated using Tukey's HSD (α = 0.05).

On to `CCC(CC)C(C)NC(=O)c1ccoc1Cl` (racemic) [Molecule B1, 2-chloro-N-(3-ethylpentan-2-yl)furan-3-carboxamide], for which the “EC50 (ppm)” value in data set [1] was 16.84 ppm. Further, the “LC50 (ppm)” value in data set [2] stood at 24.72 ppm; in data set [3] it was 23.28 ppm.

`CC(C)C[C@H](C)NC(=O)c1ccoc1Cl` [Molecule C2]: the “Mean Percent Control” value came out at 54% in data set [4] and 25.0% with M. incognita.

Consider `CC(C)[C@H](C)NC(=O)c1ccoc1Cl` [Molecule C3], for which the “Mean Percent Control” value was determined as 67% in data set [4] and 22.5% with M. incognita.

Turning to `C[C@H](NC(=O)c1ccoc1Cl)C1CCCCC1` [Molecule C4], the “Mean Percent Control” value in data set [4] was found to be 25%; in the data set on M. incognita, 2.5%.

As to `C[C@H](NC(=O)c1ccoc1Cl)C1CCCC1` [Molecule C5], the figures for the “Mean Percent Control” value (in data set [4]; in the data set with M. incognita) were 50% and 22.5%, respectively.

For `CCC(CC)[C@@H](C)NC(=O)c1ccoc1Cl` [Molecule R1, (R)-2-chloro-N-(3-ethylpentan-2-yl)furan-3-carboxamide], the “EC50 (ppm)” value in data set [1] is listed as >125 ppm. Besides, the “LC50 (ppm)” value in data set [2] and in data set [3] was >62.5 ppm each time. Moreover, the “Mean Percent Control” value in the data set with M. incognita amounted to 7.5%.

Turning to `CCC(CC)[C@H](C)NC(=O)c1ccoc1Cl` [Molecule S1, (S)-2-chloro-N-(3-ethylpentan-2-yl)furan-3-carboxamide], in data set [1], the “EC50 (ppm)” value came to 4.95 ppm. Also, the “LC50 (ppm)” value was 6.89 ppm in data set [2] and 1.799 ppm in data set [3]. The “Mean Percent Control” value in data set [4] was 84%; in the data set on M. incognita it was 77.5%.
